Test results reported in patent US4005220A, “Hemostatic compositions comprising salts of substituted hydroquinone sulfonic acid” (Laboratorios del Dr. Esteve, S.A., priority 1973, dated 1977).
Entries after “also recorded” stand apart in the source; their conditions may differ.

Assays:
[1] = Acute toxicity in mice, LD50 (method of Reed and Muench); assay type: in vivo; conditions: mouse, in vivo, po
Protocol: (§1) 1. Acute toxicity in mice
(§2) Albino mice of 18 to 25 g. The LD50 was determined in accordance with the method of Reed and Muench.
(§3) The acute toxicity in mice was determined in accordance with the method of REED and MUENCH, in a modified form (Reed L. J. and Muench H., Am. J. Hyg., 27, 493, 1938). The effect on the average bleeding time was determined by the Roskam technique modified by Laporte (Laporte J., Chemotherapia, 3, 62, 1961).

capillary permeability = assay: Protective effect on the capillaries: capillary permeability, BEACH-STEINITZ method in a modified form; assay type: in vivo; conditions: intraperitoneally, mice; in words
Text: 4. Protective effect on the capillaries

[2] = Partition coefficient butanol/water
[3] = tested on: average bleeding time (A.B.T.); assay: Activity-time relationship of the decrease in the A.B.T.; assay type: in vivo, rabbits; conditions: 5 micromols/kg
Text: 3. Activity-time relationship

[4] = tested on: average bleeding time (A.B.T.); assay: Effect on the average bleeding time (A.B.T.), Roskam technique modified by Laporte; assay type: in vivo; conditions: one hour after administration, rabbits
Protocol: 2. Effect on the average bleeding time
as §3

mice = assay: Acute toxicity in mice, LD50 (method of Reed and Muench); assay type: in vivo; conditions: mice (summary table)
Protocol: as §1, §2, §3

## CC(C)(C)c1cc(O)c(S(=O)(=O)O)cc1O [cyclohexylamine (tertiary butyl)-p-dihydroxybenzenesulphonate]
[1]
  LD50: 1000 mg/kg

## Diethylamine (tertiary butyl)-p-dihydroxybenzenesulphonate
Capillary permeability
  capillary permeability: marked decrease in the capillary permeability
[2]
  Partition coefficient butanol/water: 2.38
[3]; 1 hour after intravenous administration
  % decrease in the A.B.T.: 42%
[3]; 2 hours after intravenous administration
  % decrease in the A.B.T.: 43.5%
[3]; 4 hours after intravenous administration
  % decrease in the A.B.T.: 41.0%
[3]; 8 hours after intravenous administration
  % decrease in the A.B.T.: 34.8%
[3]; 16 hours after intravenous administration
  % decrease in the A.B.T.: 33.0%
[3]; 24 hours after intravenous administration
  % decrease in the A.B.T.: 22.5%
[3]; 48 hours after intravenous administration
  % decrease in the A.B.T.: 14.0%
[3]; in words
  duration of effect: lasts for a long time; also recorded: lasts for a markedly longer time than the products already described hitherto
[4]; 0.625 micromols/kg
  Decrease in the A.B.T. in %: 7%
[4]; 1.25 micromols/kg
  Decrease in the A.B.T. in %: 25%
[4]; 2.5 micromols/kg
  Decrease in the A.B.T. in %: 34%
[4]; 5.0 micromols/kg
  Decrease in the A.B.T. in %: 42%
[4]; 7.05 (sic) micromols/kg
  Decrease in the A.B.T. in %: 49%
[4]; 10.0 micromols/kg
  Decrease in the A.B.T. in %: 55%

## Sodium methyl-p-dihydroxybenzenesulphonate
[2]
  Partition coefficient butanol/water: 0.87
mice; p.o.
  LD50: > 1,000 mg/kg

## Calcium (tertiary butyl)-p-dihydroxybenzenesulphonate
[2]
  Partition coefficient butanol/water: 1.36
mice; p.o.
  LD50: 2,337 mg/kg

## Ammonium (tertiary butyl)-p-dihydroxybenzenesulphonate
[2]
  Partition coefficient butanol/water: 0.42
mice; i.v.
  LD50: 600 mg/kg

## lithium (tertiary butyl)-p-dihydroxybenzenesulphonate
[2]
  Partition coefficient butanol/water: 1.28
mice; i.v.
  LD50: 1,000 mg/kg
